The source of these data is patent US20190328721A1, “METHOD OF ACTIVATING DENDRITIC CELLS” (KOREA INSTITUTE OF SCIENCE AND TECHNOLOGY, priority 2018, published 2019).

In experiment [1] the test system is bone marrow-derived dendritic cells (BMDCs). Put plainly: Phagocytosis of cancer cells by bone marrow-derived dendritic cells in vitro. Format: cell-based, mice. To be noted: method of Example 1-1; CT26.CL25 and B16F10-Ova. As for the experimental part:
(§1) Specifically, the present inventors prepared bone marrow-derived macrophages (BMDMs) differentiated from excised bone marrow of mice using M-CSF and bone marrow-derived dendritic cells (BMDCs) differentiated from excised bone marrow using Flt3L. The degree of differentiation was confirmed by flow cytometry analysis using antibodies specifically binding to F4/80 (BMDM marker) and CD11c (BMDC marker), respectively (FIGS. 2A and 2B).
(§2) The prepared BMDMs and BMDCs were stained with 1 μM CellTracker Deep Red (Thermo Fisher Scientific, USA). 30 μM of Y27632 (Abcam, USA) or 30 μM of fasudil (Selleck Chemicals, USA) was added to each of 15×10^4 cells/ml of the stained macrophages and dendritic cells and incubated at 37° C. for 1 hour. As a negative control, macrophages or dendritic cells that were not incubated with Y27632 and fasudil were used.
(§3) Bone marrow-derived macrophages or dendritic cells prepared in RPMI medium and cancer cell lines stained with 1 μM CellTracker CMFDA (Thermo Fisher Scientific, USA) were co-cultured at about 37° C. for about 2 hours. CT26.CL25, a colon cancer cell line, and B16F10-OVA, a melanoma cell line, were used as the cancer cells.
(§4) Thereafter, the percentage of cancer cells was measured by flow cytometry, and the phagocytosis ratio of macrophages and dendritic cells against cancer cells was calculated. The results are shown in FIGS. 2C to 2F (left: cancer cell line CT26.CL25, right: cancer cell line B16F10-OVA).
(§5) In order to more accurately analyze the phagocytosis of macrophages and dendritic cells against cancer cells according to the treatment of the ROCK inhibitor, the present inventors analyzed phagocytosis of the BMDMs and BMDCs against CT26.CL25 colon cancer cells using the pHrodo-SE dye, which changes in fluorescence depending on pH. When […], the pH of the cancer cells decreased and became red. When treated with Y27632 as described above for the above-mentioned phagocytosis response, the phagocytic activities of both the BMDMs and BMDCs against cancer cells were improved.
(§6) The present inventors performed an experiment to confirm how long the phagocytosis of BMDMs and BMDCs against cancer cells due to the ROCK inhibitor is maintained. Specifically, BMDMs and BMDCs were pretreated with Y27632 for 1 hour, then Y27632 was removed, and immediately after 30 minutes, 1 hour, 2 hours, or 4 hours, the phagocytosis against CT26.CL25 and B16F10-Ova was measured using a flow cytometer. The other experimental conditions were the same as in Example 1-1.
In order to confirm whether the ROCK inhibitor increases phagocytosis against cancer cells by acting on phagocytic cells (BMDMs or BMDCs) themselves, Y27632 was used to pretreat the phagocytic cells or cancer cells for 1 hour, and the phagocytic activity was analyzed using the same procedure described in Example 1-1. […]
Phagocytic activity of bone marrow-derived dendritic cells (BMDCs) differentiated from bone marrow cells against cancer cells was analyzed by treating the BMDCs with ROCK inhibitor Y27632 (30 μM) for 1 hour and then co-cultivating with CT26.CL25 colon cancer cells pretreated with 25 μM of doxorubicin for 24 hours or B16F10-Ova malignant melanoma cells treated with 30 μM of Y27632 for 1 hour and then treated with 2.5 μM doxorubicin (Sigma-Aldrich, USA) for 24 hours by pHrodo SE (Thermo Fisher Scientific, USA) staining (BMDC:Dox-treated B16F10-Ova=1:1). As shown in FIGS. 16A to 16D, it was confirmed that the phagocytic activity of BMDCs induced by doxorubicin were increased in the Y27632-treated group compared to the control group (FIGS. 16A to 16D). […]

Experiment [2] concerns bone marrow-derived macrophages (BMDMs). Description: Phagocytosis of cancer cells by bone marrow-derived macrophages in vitro. In kind it is cell-based, mice. How it is done: as §1, §2, §3, §4, §5, §6
In order to confirm whether the ROCK inhibitor increases phagocytosis against cancer cells by acting on phagocytic cells (BMDMs or BMDCs) themselves, Y27632 was used to pretreat the phagocytic cells or cancer cells for 1 hour, and the phagocytic activity was analyzed using the same procedure described in Example 1-1.
The present inventors identified through the above-mentioned results that Y27632 promotes phagocytic cells against cancer cells by inhibiting ROCK in the phagocytic cells. In order to elucidate a more detailed mechanism related to the increase of phagocytic activity by ROCK inhibitors, the present inventors analyzed phagocytosis of the phagocytic cells against cancer cells using blebbistatin (Sigma-Aldrich, USA), which can inhibit the movement of myosin light chain, which exist downstream of ROCK signaling pathway, according to the method described in Example 1-1.
Bone marrow-derived macrophages (BMDMs) treated with 30 μM of fasudil were co-cultured with B16F10-Ova malignant melanoma cells for 1 hour and the phagocytic activity of the BMDMs against apoptotic cancer cells was analyzed by flow cytometry analysis. In order to induce immunogenic apoptosis, 2.5 μM mitoxantrone (Sigma-Aldrich, USA) was administered with B16F10-Ova cells stained with CellTracker Deep Red (Thermo Fisher Scientific, USA) for 4 hours. […]

The subject of experiment [3] is dendritic cells. Description: Flow cytometry of dendritic cells from B16F10-Ova-bearing mice (maturation, subsets, cross presentation). Format: in vivo. To be noted: tumor-draining lymph nodes. How it is done:
To confirm the effect of the ROCK inhibitor Y27632 on the maturation process of dendritic cells, the inventors administered Y27362 to B16F10-Ova-bearing cancer model animals according to the same administration schedule as in Example 2-1, and the expression of CD40 and CD86, which are dendritic cell maturation markers, was analyzed by flow cytometry.
Recently, it has been shown that CD103 (corresponding to CD141 in humans)-positive dendritic cells (CD103 DC) play an important role in cancer cell phagocytosis and T cell anticancer immunity among dendritic cells (Broz et al., Cancer Cell, 26 (5): 638-652, 2014). Therefore, in order to analyze the effect of the ROCK inhibitor on CD103 DC, Y27632 was administered to B16F10-Ova-bearing cancer model mice according to the administration schedule described in the above Example 2-1, tumor tissues and tumor-draining lymph nodes were excised, and then flow cytometry analysis was performed using antibodies specifically binding to dendritic cell markers (CD11b, CD103 and CD8). It was confirmed that the ratio of CD103 DC was increased by Y27632 in both the tumor-draining lymph nodes (FIG. 15A) and the tumor tissues (FIG. 15B). On the other hand, in the case of CD11b-positive and CD8-positive dendritic cells, no change due to administration of Y27632 was observed.
The present inventors analyzed cross presentation activity which is one of functions of dendritic cells via flow cytometry analysis using an antibody capable of detecting a cancer antigen (H-2K^b-Ova) capable of activating T cells, through flow cytometry analysis using an antibody (H-2K^b monoclonal antibody, Invitrogen, USA). It was confirmed that the cross presentation of CD103 DC was increased by Y27632 in both tumor-draining lymph nodes (FIG. 15C) and tumor tissues (FIG. 15D).
Further, the present inventors analyzed CD40, which is one of the markers of dendritic cell function capable of activating T cells and a DC maturation marker of dendritic cells, by flow cytometry analysis using anti-CD40 antibodies. As shown in FIGS. 15E and 15F, it was confirmed that the maturation of CD103 DC was increased by Y27632 in the tumor-draining lymph nodes.
The present inventors analyzed a series of immunological induction processes occurring after the phagocytosis against cancer cells or cancer-specific antigens in order to analyze the mechanism of the combination therapy for the anti-cancer immune response. Specifically, in order to confirm the effect of the combination therapy on the dendritic cell maturation, Y27632 and doxorubicin were administered to B16F10-Ova-bearing cancer model mice as described above, and then tumor-draining lymph nodes were isolated and the expression of CD40 and CD86, which are dendritic cell maturation markers, was analyzed by flow cytometry analysis.
Further, in order to confirm the effect of the combined treatment on the cross presentation process to the dendritic cells, the present inventors administered Y27632 and doxorubicin to B16F10-Ova-bearing cancer model mice as described above, isolated the tumor-draining lymph nodes, and then cross presentation activity, which is one of functions of dendritic cells, was analyzed via flow cytometry analysis using an antibody capable of detect a cancer antigen (H-2K^b-Ova) capable of activating T cells, through flow cytometry analysis using an antibody (H-2K^b monoclonal antibody, Invitrogen, USA).
The present inventors then investigated the effect of the combination of the drugs on the maturation process of dendritic cells. Specifically, the tumor-draining lymph nodes were isolated after administration of Y27632 and/or cisplatin in the B16F10-Ova-bearing cancer model, and the expression level of CD40 and CD86, the dendritic cell maturation markers, was analyzed by flow cytometry. As shown in FIG. 19C and 19D, there was no influence on the maturation of dendritic cells when Y27632 alone, cisplatin alone, or the combination of the two were administered (FIGS. 19C and 19D). […]

The test system of experiment [4] is MMTV/Neu mice tumors. Description: Spontaneous cancer development model. Format: in vivo. The settings on record: anti-CD8 fluorescence immunohistochemistry. How it is done:
The survival rate was recorded over up to 100 days. When the size of tumor was over 2,500 mm^3, the animal was euthanized (FIG. 20C).
Specifically, fluorescence immunohistochemical analysis was performed using anti-CD8 antibodies in the cancer tissues after the end of the experiment.
Accordingly, the present inventors investigated whether the combination of the drugs can increase the anti-cancer immunity even in the spontaneous cancer development model. […] After completion of the experiment, the present inventors isolated the spleen cells and treated with peptide against rat-Neu, an antigen expressed in the cancer of the spontaneous cancer development model, and after 48 hours, the culture supernatant was collected and IFN-γ was quantified using an ELISA kit (R&D Systems, Inc, USA).

The subject of experiment [5] is B16F10-Ova. Put plainly: B16F10-Ova tumor model, Y27632 combined with a chemotherapeutic. Format: in vivo, mice. The settings on record: doxorubicin 5 mg/kg, Y27632 10 mg/kg. How it is done:
Specifically, tumor suppression was examined by administering 5 mg/kg of doxorubicin and 10 mg/kg of Y27632 alone or in combination to B16F10-Ova-bearing tumor model mice prepared as in Example 2-1. Doxorubicin was administered three times at intervals of 3 days from the 8th day after the injection of cancer cells, and Y27632 was administered at a dose of 10 mg/kg continuously for two consecutive days via intravenous injection followed by a day of rest as a cycle, followed by 3 cycles of 3-day intervals (FIG. 18A). The mice were sacrificed on the 20th day after the injection of cancer cells, the tumor tissue was excised, and ex vivo images were taken and the tumor tissues were weighed. Before the sacrifice of the mice, the tumor volumes over time were calculated as described above using calipers at intervals of 3 days from the 8th day after the injection of the cancer cells.
In order to confirm whether CD8^+ T cells infiltrates into tumor tissues, tumor tissues excised from an experimental animal were sectioned and subjected to fluorescence immunohistochemistry using anti-CD8 antibodies.
First, to determine the cisplatin therapeutic concentration, a B16F10-Ova tumor model was constructed in a nude mouse lacking T cell immunity and then an experiment was conducted to confirm the concentration of cisplatin having an anticancer effect similar to that of doxorubicin at 5 mg/kg. […] Thus, in order to evaluate the therapeutic effect of cisplatin and the ROCK inhibitor Y27632 in the B16F10-Ova-bearing tumor model, 3 mg/kg of cisplatin was administered according to the administration schedule shown in FIG. 18A.

For experiment [6], the system named is bone marrow-derived dendritic cells (BMDC). Put plainly: Cross presentation of H-2Kb-Ova by BMDCs in vitro. The settings on record: Y27632 30 μM, 1 hour on BMDCs; cancer cells doxorubicin treated or untreated. Format: cell-based, mice. As for the experimental part:
Furthermore, the inventors investigated whether the cross presentation of dendritic cells was promoted by the combination treatment of doxorubicin and Y27632. To this end, the present inventors used 30 μM of Y27632 to pretreat bone marrow-derived dendritic cells (BMDC) stained with CellTracker CMFDA (Thermo Fisher Scientific, USA) for 1 hour, followed by treatment with doxorubicin treated B16F10-Ova cells or doxorubicin untreated B16F10-Ova cells. After the co-culture, floating cancer cells were removed by withdrawing supernatant. Cross presentation activity, which is one of functions of dendritic cells, was analyzed via flow cytometry analysis using an antibody capable of detect a cancer antigen (H-2K^b-Ova) capable of activating T cells, through flow cytometry analysis using an antibody (H-2K^b monoclonal antibody, Invitrogen, USA).

The subject of experiment [7] is CT26 cancer cells. Put plainly: CT26 tumor model. Format: in vivo, mice. The settings on record: fasudil 20 mg/kg; Y27632 10 mg/kg. How it is done:
The same procedure as described above was repeated except that CT26 was used instead of the CT26.CL25 colon cancer cell line and fasudil (Selleck Chemicals, USA) at 20 mg/kg of body weight or Y27632 at 10 mg/kg of body weight was administered.

[8] abbreviates: doxorubicin 5 mg/kg, Y27632 10 mg/kg.

For `Cc1ccc2c(c1)C(=O)C1(O)CCN(c3ccccc3)C1=N2` (stereo not drawn) [blebbistatin], the “phagocytic action of phagocytic cells against cancer cells (BMDCs)” value in experiment [1] is listed as “significantly enhance”. The “phagocytic action of phagocytic cells against cancer cells (BMDMs)” value in experiment [2] (method of Example 1-1, CT26.CL25 and B16F10-Ova) was “significantly enhance”.
Regarding `N.N.[Cl][Pt][Cl]` [cisplatin], in experiment [3] (cisplatin study), the “cross-presentation function (H-2Kb-Ova) of dendritic cells” value is given as “no effect”; the “maturation of dendritic cells (CD40 and CD86)” value is “no influence”.
For the molecule `COc1cccc2c1C(=O)c1c(O)c3c(c(O)c1C2=O)C[C@@](O)(C(=O)CO)C[C@@H]3O[C@H]1C[C@H](N)[C@H](O)[C@H](C)O1` [doxorubicin], in experiment [4], the “CD8+ T cells in tumor tissues (infiltration)” value is reported as “some T cell infiltration”. For the same molecule, in experiment [3] (setting [8]), the “antigenic cross presentation (H-2Kb-Ova) in the dendritic cells” value is “did not significantly increase”; the “dendritic cell maturation (expression of CD40 and CD86)” value is “no effect”. For the same molecule, in experiment [5], the “complete regression of the tumor” value is “not observed” and the “infiltration of CD8+ T cells into tumor tissues” value is “slight infiltration”. The “cross presentation (H-2Kb-Ova) of BMDCs co-cultured with B16F10-Ova cells” value in experiment [6] is recorded as “increased the cross-presentation”.
As to `O=S(=O)(c1cccc2cnccc12)N1CCCNCC1` [fasudil], the “growth of cancer (size of the tumor)” value in experiment [7] is reported as “inhibited the growth of cancer similarly to Y27632”. Further, the “phagocytosis of BMDMs against cancer cells in immunogenic cell death induced by mitoxantrone” value in experiment [2] (30 μM, 1 hour, B16F10-Ova treated with 2.5 μM mitoxantrone, compared with control) is given as “significant increase”.
